Consider one compound from paper PMC3412845, “Waking Action of Ursodeoxycholic Acid (UDCA) Involves Histamine and GABAA Receptor Block” (PLoS ONE, 2012).

The subject of one data set is HDC−/− mice. In words: Polygraphic (EEG/EMG) sleep-wake recording in histamine-deficient mice. The class given is in vivo, mouse. The procedure: Animal experiments were conducted according to the Animal Protection Law of the Federal Republic of Germany and the local guidelines (Bezirksregierung Duesseldorf) and were in accordance with the European Communities Council directive regarding care and use of animals for experimental procedures (86/609/EEC). The general protocol of sleep-wake recording and experiment in the mouse was approved by the ethic committee of Claude Bernard University of Lyon. All efforts were made to minimize the number of animals and their suffering. At the age of 12 weeks and with a body weight of 30±2 g HDC wild type and knockout mice used for EEG and sleep-wake studies were chronically implanted, under deep gas anesthesia using isoflurane (2%, 200 ml/min) and a TEM anesthesia system (Bordeaux, France), with six cortical electrodes (gold-plated tinned copper wire, Ø = 0.4 mm, Filotex, Draveil, France) and three neck muscle electrodes (fluorocarbon-coated gold-plated stainless steel wire, Ø = 0.03 mm, Cooner Wire Chatworth, CA, U.S.A.) to record the electroencephalogram (EEG) and electromyogram (EMG) and to monitor the sleep-wake cycle. Finally, the electrode assembly was anchored and fixed to the skull with Super-Bond (Sun Medical Co., Shiga, Japan) and dental cement. This implantation allows stable and long-lasting polygraphic recordings.
After surgery, the animals were housed individually in barrels placed in an insulated sound-proof recording room maintained at an ambient temperature of 22±1°C and on a 12 h light/dark cycle (lights-on at 7 a.m.), standard food and water being available ad libitum. After a 7-days recovery period, mice were habituated to the recording cable for 7 days before polygraphic recordings were started. Cortical EEG (contralateral frontoparietal leads) and EMG signals were amplified, digitized with a resolution of 256 and 128 Hz, respectively, and computed on a CED 1401 Plus (Cambridge, UK). Using a Spike2 script and with the assistance of spectral analysis using the fast Fourier transform, polygraphic records were visually scored by 30-sec epochs for wakefulness (W), slow wave sleep (SWS), and paradoxical sleep (PS) according to previously described criteria validated for mice.
Animals were subjected to 12 h sleep-wake recordings following administration of URSOFALK (clinically used UDCA, 32 mg/kg) through the oral route (per os) at 10 a.m. (during the sleepy period) or at 7 p.m. (during the active period). Each animal received twice single dose of UDCA and twice equal volume of vehicle. There was an interval of 7 days between any two administrations. UDCA or vehicle was applied at random. The waking, slow wave sleep or paradoxical sleep amounts were compared between vehicle and UCDA within the same animal, the differences being averaged within the groups. […]

Details of data set [1]: method as in PMID 11248487. Conditions: volunteers (men), single oral dose ∼12 mg/kg; cited from earlier work.
The mark [2] stands for this setting: UDCA 32 mg/kg per os at 7 p.m., vs vehicle.

For `C[C@H](CCC(=O)O)[C@H]1CC[C@H]2[C@@H]3[C@@H](O)C[C@@H]4C[C@H](O)CC[C@]4(C)[C@H]3CC[C@]12C` [UDCA, ursodeoxycholic acid], the sleep wake states result in the data set with HDC−/− mice (32 mg/kg orally at 10 a.m. (quiet period), n = 7) is reported as “did not affect”. Moreover, in the data set with HDC−/− mice (setting [2]), the “slow wave sleep (SWS) and paradoxical sleep (PS)” value was “tended to be increased”; the total sleep entry was “increased”; the waking entry was “significantly decreased”. Also, the “serum peak UDCA concentration” value in data set [1] is ~18 ± 10 µM.
